Experimental data reported in ChEMBL document CHEMBL1139680, “2,4-Disubstituted piperidines as selective CC chemokine receptor 3 (CCR3) antagonists: synthesis and selectivity” (Bioorg Med Chem Lett, 2006).

How the values were obtained:
[1] = molecular target: T1, C-C chemokine receptor type 3 (Homo sapiens, UniProt P51677); assay: Binding affinity to CCR3
T1 sequence (P51677 whole entry): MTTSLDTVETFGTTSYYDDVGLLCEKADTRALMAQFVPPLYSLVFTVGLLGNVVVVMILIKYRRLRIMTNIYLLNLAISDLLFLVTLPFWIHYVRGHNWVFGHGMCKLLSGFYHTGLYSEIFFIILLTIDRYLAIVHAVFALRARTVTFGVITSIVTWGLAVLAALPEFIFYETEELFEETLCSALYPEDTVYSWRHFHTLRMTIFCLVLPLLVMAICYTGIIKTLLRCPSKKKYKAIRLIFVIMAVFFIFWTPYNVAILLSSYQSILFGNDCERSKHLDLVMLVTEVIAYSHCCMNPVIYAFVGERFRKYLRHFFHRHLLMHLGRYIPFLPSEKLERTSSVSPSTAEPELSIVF

[2] = molecular target: Sodium-dependent serotonin transporter (Homo sapiens, UniProt P31645); assay: Inhibition of 5HTT
Sodium-dependent serotonin transporter, sequence (P31645 whole entry): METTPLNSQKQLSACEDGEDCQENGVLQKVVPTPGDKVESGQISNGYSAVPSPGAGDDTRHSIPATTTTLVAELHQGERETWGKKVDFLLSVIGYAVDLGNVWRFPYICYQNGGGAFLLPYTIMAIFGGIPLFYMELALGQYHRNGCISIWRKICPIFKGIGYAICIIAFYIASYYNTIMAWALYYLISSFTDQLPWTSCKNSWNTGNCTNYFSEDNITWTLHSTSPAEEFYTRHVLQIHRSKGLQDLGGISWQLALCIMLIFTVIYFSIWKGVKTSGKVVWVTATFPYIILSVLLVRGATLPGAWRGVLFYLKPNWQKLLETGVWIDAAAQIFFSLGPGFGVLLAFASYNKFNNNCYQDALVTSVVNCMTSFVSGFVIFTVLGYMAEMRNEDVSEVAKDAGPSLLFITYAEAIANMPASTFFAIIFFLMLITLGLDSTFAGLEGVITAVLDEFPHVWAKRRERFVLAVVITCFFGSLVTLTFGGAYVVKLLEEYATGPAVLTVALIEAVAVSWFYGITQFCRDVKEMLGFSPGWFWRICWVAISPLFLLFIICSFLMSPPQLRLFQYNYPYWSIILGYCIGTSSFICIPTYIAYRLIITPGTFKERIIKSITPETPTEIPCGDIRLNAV

[3] = molecular target: Sodium-dependent noradrenaline transporter (Homo sapiens, UniProt P23975); assay: Inhibition of NET
Sodium-dependent noradrenaline transporter, sequence (P23975 whole entry): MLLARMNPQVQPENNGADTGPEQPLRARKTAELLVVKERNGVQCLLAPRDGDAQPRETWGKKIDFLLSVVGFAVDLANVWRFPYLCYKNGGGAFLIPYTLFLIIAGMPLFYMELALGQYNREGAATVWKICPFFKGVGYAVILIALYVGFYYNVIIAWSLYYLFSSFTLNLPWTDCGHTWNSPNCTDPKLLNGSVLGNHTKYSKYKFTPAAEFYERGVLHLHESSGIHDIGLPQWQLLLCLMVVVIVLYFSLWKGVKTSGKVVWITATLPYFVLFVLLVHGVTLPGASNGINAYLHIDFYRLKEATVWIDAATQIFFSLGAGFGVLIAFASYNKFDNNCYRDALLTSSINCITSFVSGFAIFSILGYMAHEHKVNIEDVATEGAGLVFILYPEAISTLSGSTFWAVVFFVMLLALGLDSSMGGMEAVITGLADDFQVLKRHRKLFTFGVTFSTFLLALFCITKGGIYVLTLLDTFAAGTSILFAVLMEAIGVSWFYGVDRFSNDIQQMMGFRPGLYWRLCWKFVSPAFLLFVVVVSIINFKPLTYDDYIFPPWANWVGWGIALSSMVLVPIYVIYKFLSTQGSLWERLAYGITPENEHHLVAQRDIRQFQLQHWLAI

[4] = molecular target: Sodium-dependent dopamine transporter (Homo sapiens, UniProt Q01959); assay: Inhibition of DAT
Sodium-dependent dopamine transporter, sequence (Q01959 whole entry): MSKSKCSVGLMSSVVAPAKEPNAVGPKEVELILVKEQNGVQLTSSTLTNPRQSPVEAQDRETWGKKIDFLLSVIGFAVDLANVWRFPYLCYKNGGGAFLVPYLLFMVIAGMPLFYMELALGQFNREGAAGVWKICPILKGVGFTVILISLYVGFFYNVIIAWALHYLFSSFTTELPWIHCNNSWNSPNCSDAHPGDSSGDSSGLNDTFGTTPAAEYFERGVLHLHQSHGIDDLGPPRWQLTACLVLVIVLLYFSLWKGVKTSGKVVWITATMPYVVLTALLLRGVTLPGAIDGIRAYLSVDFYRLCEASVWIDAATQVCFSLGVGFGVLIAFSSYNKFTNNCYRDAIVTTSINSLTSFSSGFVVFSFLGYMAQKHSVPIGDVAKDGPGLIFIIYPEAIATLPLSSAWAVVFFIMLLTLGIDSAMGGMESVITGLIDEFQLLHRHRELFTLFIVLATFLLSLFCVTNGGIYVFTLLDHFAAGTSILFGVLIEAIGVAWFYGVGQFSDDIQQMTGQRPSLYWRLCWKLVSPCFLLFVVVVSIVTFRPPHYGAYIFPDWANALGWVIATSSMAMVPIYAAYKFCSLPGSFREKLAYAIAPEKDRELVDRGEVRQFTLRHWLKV

[5] = Oral bioavailability in cynomolgus monkey at 5 mg/kg, po; format: ADME, organism-based, Macaca fascicularis; conditions: in vivo
[6] = Clearance in mouse at 2 mg/kg, iv; format: ADME, organism-based; design: dose 2 mg/kg, route intravenous; conditions: in vivo
Eosinophil [7] = assay: Inhibition of eotaxin-induced human eosinophil chemotaxis; format: functional, cell-based
[8] = Half life in cynomolgus monkey at 5 mg/kg, po; format: ADME, organism-based, Macaca fascicularis; design: dose 5 mg/kg, route oral; conditions: in vivo
[9] = Cmax in cynomolgus monkeys after 5 mg/kg oral dose; format: ADME, organism-based, Macaca fascicularis; design: dose 5 mg/kg, route oral; conditions: cynomolgus monkey, in vivo
[10] = Cmax in mice after 10 mg/kg oral dose; format: ADME, organism-based; design: dose 10 mg/kg, route oral; conditions: mouse, in vivo
[11] = Half life in mouse at 10 mg/kg, po; format: ADME, organism-based; design: dose 10 mg/kg, route oral; conditions: in vivo
[12] = Volume of distribution in mouse ar 2 mg/kg, iv; format: ADME, organism-based; design: dose 2 mg/kg, route intravenous; conditions: in vivo, read-out: Vdss
[13] = Volume of distribution in cynomolgus monkey at 2 mg/kg, iv; format: ADME, organism-based, Macaca fascicularis; design: dose 2 mg/kg, route intravenous; conditions: in vivo, read-out: Vdss
[14] = Clearance in cynomolgus monkey at 2 mg/kg, iv; format: ADME, organism-based, Macaca fascicularis; design: dose 2 mg/kg, route intravenous; conditions: in vivo
Eosinophil [15] = assay: Inhibition of eotaxin-induced calcium mobilization in eosinophil; format: functional, cell-based; conditions: Homo sapiens
[16] = Oral bioavailability in mouse at 10 mg/kg, po; format: ADME, organism-based; conditions: in vivo

Row | Compound | IC50 [1] | Ki [2] | Ki [3] | Ki [4] | also measured
1 | CC(=O)c1cc(NC(=O)NCCC[C@H]2C[C@H](Cc3ccc(F)cc3)CCN2CC(F)(F)F)cc(C(C)=O)c1 | 1.38 µM (antagonist) |  |  |  | 
2 | CC(=O)c1cc(NC(=O)NCCC[C@H]2C[C@H](Cc3ccc(F)cc3)CCN2)cc(C(C)=O)c1 | 0.0005 µM (antagonist) | 0.0035 µM | 0.095 µM | 0.119 µM | 
3 | CC(=O)c1cccc(NC(=O)NCCC[C@H]2C[C@H](Cc3ccc(F)cc3)CCN2C)c1 | 0.0017 µM (antagonist) | 0.572 µM | 0.257 µM | 0.096 µM | 
4 | C=CCN1CC[C@@H](Cc2ccc(F)cc2)C[C@@H]1CCCNC(=O)Nc1cc(C(C)=O)cc(C(C)=O)c1 | 0.001 µM (antagonist) | 0.069 µM | 0.876 µM | 0.297 µM | 
5 | CC(=O)c1cc(NC(=O)NCCC[C@H]2C[C@H](Cc3ccc(F)cc3)CCN2CCO)cc(C(C)=O)c1 | 0.0009 µM (antagonist) | 0.04 µM | 1.39 µM | 0.451 µM | 
6 | CC(=O)c1cccc(NC(=O)NCCC[C@H]2C[C@H](Cc3ccc(F)cc3)CCN2)c1 | 0.0014 µM (antagonist) | 0.018 µM | 0.233 µM | 0.219 µM | 
7 | CC(=O)c1cc(NC(=O)NCCC[C@H]2C[C@H](Cc3ccc(F)cc3)CCN2CCF)cc(C(C)=O)c1 | 0.0023 µM (antagonist) | 0.049 µM | 0.317 µM | 0.651 µM | 
8 | C#CCN1CC[C@@H](Cc2ccc(F)cc2)C[C@@H]1CCCNC(=O)Nc1cc(C(C)=O)cc(C(C)=O)c1 | 0.0019 µM (antagonist) | 0.305 µM | 0.524 µM | 0.621 µM | 
9 | CC(=O)c1cc(NC(=O)NCCC[C@H]2C[C@H](Cc3ccc(F)cc3)CCN2C(=N)N)cc(C(C)=O)c1 | 0.0043 µM (antagonist) | 0.019 µM | 0.388 µM | 0.031 µM | 
10 | CC(=O)c1cccc(NC(=O)NCCC[C@H]2C[C@H](Cc3ccc(F)cc3)CCN2CCO)c1 | 0.007 µM (antagonist) | 0.05 µM | 1.82 µM | 2.24 µM | 
11 | CC(=O)c1cccc(NC(=O)NCCC[C@H]2C[C@H](Cc3ccc(F)cc3)CCN2CC2CC2)c1 | 0.0025 µM (antagonist) | 0.117 µM | 3.45 µM | 0.251 µM | 
12 | CCCN1CC[C@@H](Cc2ccc(F)cc2)C[C@@H]1CCCNC(=O)Nc1cccc(C(C)=O)c1 | 0.002 µM (antagonist) | 0.296 µM | 4.17 µM | 0.756 µM | bioavailability [5]: 18%; clearance [6]: 177 mL/min/kg; EC50 (Eosinophil [7]): 0.019 µM; half-life [8]: 9 h; Cmax [9]: 989 nM; Cmax [10]: 274 nM; half-life [11]: 1.4 h; Vd [12]: 8 L/kg; Vd [13]: 3.1 L/kg; clearance [14]: 6.67 mL/min/kg; IC50 (Eosinophil [15]): 0.026 µM; bioavailability [16]: 36%
13 | C=CCN1CC[C@@H](Cc2ccc(F)cc2)C[C@@H]1CCCNC(=O)Nc1cccc(C(C)=O)c1 | 0.0041 µM (antagonist) | 0.217 µM | 1.23 µM | 0.855 µM | 
14 | CC(=O)CN1CC[C@@H](Cc2ccc(F)cc2)C[C@@H]1CCCNC(=O)Nc1cc(C(C)=O)cc(C(C)=O)c1 | 0.0009 µM (antagonist) | 0.011 µM | 0.381 µM | 0.754 µM | 
15 | CC(=O)c1cc(NC(=O)NCCC[C@H]2C[C@H](Cc3ccc(F)cc3)CCN2C(C)=O)cc(C(C)=O)c1 | 0.0039 µM (antagonist) | 5.46 µM | 1.38 µM | 1.22 µM | EC50 (Eosinophil [7]): > 0.1 µM; IC50 (Eosinophil [15]): 0.133 µM
16 | CC(=O)c1cc(NC(=O)NCCC[C@H]2C[C@H](Cc3ccc(F)cc3)CCN2CCCO)cc(C(C)=O)c1 | 0.0013 µM (antagonist) | 0.212 µM | 0.497 µM | 0.609 µM | 
17 | CCC(=O)N1CC[C@@H](Cc2ccc(F)cc2)C[C@@H]1CCCNC(=O)Nc1cc(C(C)=O)cc(C(C)=O)c1 | 0.0058 µM (antagonist) | 0.224 µM | 9.26 µM | 2.08 µM | 
18 | CC(=O)c1cc(NC(=O)NCCC[C@H]2C[C@H](Cc3ccc(F)cc3)CCN2CC(N)=O)cc(C(C)=O)c1 | 0.0036 µM (antagonist) | 0.71 µM | 5.01 µM | 2.66 µM | 
19 | CCCN1CC[C@@H](Cc2ccc(F)cc2)C[C@@H]1CCCNC(=O)Nc1cc(C(C)=O)cc(C(C)=O)c1 | 0.0007 µM (antagonist) | 0.166 µM | 1.48 µM | 0.157 µM | EC50 (Eosinophil [7]): 0.0047 µM; IC50 (Eosinophil [15]): 0.0012 µM
20 | CC(=O)c1cc(NC(=O)NCCC[C@H]2C[C@H](Cc3ccc(F)cc3)CCN2CC(F)F)cc(C(C)=O)c1 | 0.0124 µM (antagonist) | 0.328 µM | 1.05 µM | 0.931 µM | 
21 | CC(=O)c1cccc(NC(=O)NCCC[C@H]2C[C@H](Cc3ccccc3)CCN2)c1 (racemic) | 0.006 µM (antagonist) | 0.042 µM | 0.039 µM | 0.032 µM | 
22 | N#Cc1cccc(NC(=O)NCCC[C@H]2C[C@H](Cc3ccccc3)CCN2)c1 (racemic) | 0.022 µM (antagonist) |  |  |  | 
23 | N#Cc1cccc(NC(=O)NCCCC[C@H]2C[C@H](Cc3ccccc3)CCN2)c1 (racemic) | 0.142 µM (antagonist) |  |  |  | 
24 | N#Cc1cccc(NC(=O)NCCC[C@@H]2C[C@H](Cc3ccccc3)CCN2)c1 (racemic) | 0.386 µM (antagonist) |  |  |  | 
25 | N#Cc1cccc(NC(=O)NCC[C@H]2C[C@H](Cc3ccccc3)CCN2)c1 (racemic) | 0.185 µM (antagonist) |  |  |  | 
26 | N#Cc1cccc(NC(=O)NCCC[C@H]2C[C@H](Cc3ccccc3)CCN2)c1 (stereo in doubt; 4) | 0.013 µM (antagonist) | 0.035 µM | 0.037 µM | 0.034 µM | 
27 | N#Cc1cccc(NC(=O)NCCC[C@H]2C[C@H](Cc3ccccc3)CCN2)c1 (stereo in doubt; 5) | 0.644 µM (antagonist) | 0.054 µM | 0.046 µM | 0.01 µM | 
